Counter-ions that a name gives are not always drawn.
The molecules below were run against T1, human mGluR4 (hmGluR4) (Homo sapiens, UniProt Q14833) (assay: Calcium assay EC50 determination, positive allosteric modulator activity on hmGluR4 transiently over-expressed in HEK-293 cells). Details: PAM mode with EC20 glutamate; hmGluR4 in HEK-293 cells; intracellular calcium (Fluo4AM); read-out: mGluR4 positive allosteric modulator activity, half maximal effective concentration (EC50).
T1 construct: expressed in transfected cells; host or cells: HEK-293 cells, transient co-transfection by electroporation
T1 sequence (Q14833 33-912): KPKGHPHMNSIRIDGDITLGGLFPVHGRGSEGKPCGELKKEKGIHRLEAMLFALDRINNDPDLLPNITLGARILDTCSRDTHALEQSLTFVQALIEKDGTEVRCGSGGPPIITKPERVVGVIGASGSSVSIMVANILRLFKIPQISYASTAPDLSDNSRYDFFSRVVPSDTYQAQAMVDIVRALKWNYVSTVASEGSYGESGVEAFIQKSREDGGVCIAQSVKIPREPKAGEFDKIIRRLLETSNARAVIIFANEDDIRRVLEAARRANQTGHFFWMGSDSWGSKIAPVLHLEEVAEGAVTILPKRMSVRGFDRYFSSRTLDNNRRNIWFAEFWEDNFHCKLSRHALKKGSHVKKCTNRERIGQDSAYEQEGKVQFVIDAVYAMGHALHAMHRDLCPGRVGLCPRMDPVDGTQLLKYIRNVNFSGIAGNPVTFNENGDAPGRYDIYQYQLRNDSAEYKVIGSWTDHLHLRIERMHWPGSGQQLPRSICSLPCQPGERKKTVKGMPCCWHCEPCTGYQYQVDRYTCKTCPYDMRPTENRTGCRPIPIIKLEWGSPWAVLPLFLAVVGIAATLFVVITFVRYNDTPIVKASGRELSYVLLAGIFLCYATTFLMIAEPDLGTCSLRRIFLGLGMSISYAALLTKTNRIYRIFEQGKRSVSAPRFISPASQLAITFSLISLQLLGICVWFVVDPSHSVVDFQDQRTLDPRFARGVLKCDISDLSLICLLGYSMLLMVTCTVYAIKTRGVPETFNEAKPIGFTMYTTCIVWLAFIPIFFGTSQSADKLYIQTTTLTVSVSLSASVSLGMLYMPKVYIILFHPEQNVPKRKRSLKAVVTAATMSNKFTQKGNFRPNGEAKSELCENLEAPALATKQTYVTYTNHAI
Format: cell-based
Method: Compounds are tested successively for their agonist and positive allosteric modulator activities on human mGluR4 (hmGluR4) transiently over-expressed in HEK-293 cells. Compounds exert agonist activity if, by themselves in absence of glutamate, they are able to activate hmGluR4; and they exert positive allosteric modulator activity if they increase the action of glutamate.
HEK-293 cells are maintained in Modified Eagle's Medium supplemented with 10% Foetal Calf Serum, 1% Penicillin/Streptomycin and 1% non-essential amino acids at 37° C./5% CO2.
Cells are co-transfected by electroporation with four DNA plasmids encoding hmGluR4, a chimeric G protein allowing redirection of the activation signal to intracellular calcium pathway, and glutamate transporters to decrease extracellular glutamate concentration so as to limit receptor desensitization. After transfection, cells are cultured for 24 h at 37° C./5% CO2.
Calcium Assay EC50 determination
Receptor activity is detected by changes in intracellular calcium measured using the fluorescent Ca^2+ sensitive dye, Fluo4AM (Molecular Probes).
On the day of the assay, culture medium is aspirated and replaced during 3 hours by medium without serum supplemented with 1% Glutamax, 1% Penicillin/Streptomycin and 1% non-essential amino acids. Then, cells are washed with freshly prepared buffer B (HBSS 1× (PAA), Hepes 20 mM, MgSO4-7H2O 1 mM, Na2CO3 3.3 mM, CaCl2-2H2O 1.3 mM, 0.1% BSA, Probenecid 2.5 mM) and loaded at 37° C. in 5% CO2 for 1.5 hours with buffer B containing 1 μM Fluo4AM, 0.1 mg/mL Pluronic Acid, 7 μg/mL Glutamate Pyruvate Transaminase and 2 mM sodium pyruvate. Afterwards cells are washed twice with buffer B. Then cells are detached using StemPro Accutase (Fisher Scientific), resuspended in buffer B and seeded in 384 well plate at a density of 30,000 cells per well. Addition of compounds and intracellular Ca^2+ measurements (excitation 485 nm, emission 525 nm) are performed by the fluorescence microplate reader FLIP^Tetra (Molecular Devices).
Agonist and positive allosteric modulator activities of compounds are consecutively evaluated on the same cell plate. Agonist activity is first tested during 10 minutes with the addition of compound alone on the cells. Then, cells are stimulated by an EC20 glutamate concentration and fluorescence is recorded for additional 3 minutes. EC20 glutamate concentration is the concentration giving 20% of the maximal glutamate response. Agonist or positive allosteric modulator activity(ies) are evaluated in comparison to basal signals evoked by buffer B or EC20 glutamate alone, respectively.

EC50 [nM] | SMILES
100 to 1000 | Cc1cc(CCCN2CCOCC2)cc2c(=O)[nH]c(-c3cc4ccsc4cn3)nc12 [Compound 99, 8-Methyl-6-(3-morpholin-4-yl-propyl)-2-thieno[2,3-c]pyridin-5-yl-3H-quinazolin-4-one hydrochloride]
100 to 1000 | CCC(=O)N1CCC(COc2cc(C)c3nc(-c4cc5ccsc5cn4)[nH]c(=O)c3c2)CC1 [Compound 87, 8-Methyl-6-(1-propionyl-piperidin-4-ylmethoxy)-2-thieno[2,3-c]pyridin-5-yl-3H-quinazolin-4-one]
100 to 1000 | CC(=O)N1CCN(CCOc2cc(C)c3nc(-c4cc5ccsc5cn4)[nH]c(=O)c3c2)CC1 [Compound 97, 6-[2-(4-acetyl-piperazin-1-yl)-ethoxy]-8-methyl-2-thieno[2,3-c]pyridin-5-yl-3H-quinazolin-4-one hydrochloride]
100 to 1000 | Cc1cc(OCCN2CCC3(CC2)COC3)cc2c(=O)[nH]c(-c3cc4ccsc4cn3)nc12 [Compound 84, 8-Methyl-6-[2-(2-oxa-7-aza-spiro[3.5]non-7-yl)-ethoxy]-2-thieno[2,3-c]pyridin-5-yl-3H-quinazolin-4-one]
≤ 100 | Cc1cc(OCCC2CCOC2)cc2c(=O)[nH]c(-c3cc4ccsc4cn3)nc12 (centres unmarked) [Compound 78, 8-Methyl-6-[2-(tetrahydro-furan-3-yl)-ethoxy]-2-thieno[2,3-c]pyridin-5-yl-3H-quinazolin-4-one]
≤ 100 | Cc1cc(OC[C@@H]2CCOC2)cc2c(=O)[nH]c(-c3cc4ccsc4cn3)nc12 [Compound 80-R, R-8-Methyl-6-(tetrahydro-furan-3-ylmethoxy)-2-thieno[2,3-c]pyridin-5-yl-3H-quinazolin-4-one]
≤ 100 | Cc1cc(OCC2CCOC2)cc2c(=O)[nH]c(-c3cc4cccn4cn3)nc12 (centres unmarked) [Compound 107, 8-methyl-2-pyrrolo[1,2-c]pyrimidin-3-yl-6-(tetrahydro-furan-3-ylmethoxy)-3H-quinazolin-4-one]
≤ 100 | Cc1cc(O[C@@H]2CC(=O)N(C)C2)cc2c(=O)[nH]c(-c3cc4sccc4cn3)nc12 [Compound 140-R, 8-Methyl-6-[(3R)-1-methyl-5-oxo-pyrrolidin-3-yl]oxy-2-thieno[3,2-c]pyridin-6-yl-3H-quinazolin-4-one]

Further lines, the molecule ahead of its results:

SMILES | EC50 [nM]
Cc1cc(CCN2CCOCC2)cc2c(=O)[nH]c(-c3cc(C(F)(F)F)ccn3)nc12 [Compound 117, 8-methyl-6-(2-morpholinoethyl)-2-[4-(trifluoromethyl)-2-pyridyl]-3H-quinazolin-4-one hydrochloride] | ≤ 100
Cc1cc(N2CCC3(CCOCC3)CC2)cc2c(=O)[nH]c(-c3cc4cccn4cn3)nc12 [Compound 108, 8-methyl-6-(3-oxa-9-aza-spiro[5.5]undec-9-yl)-2-pyrrolo[1,2-c]pyrimidin-3-yl-3H-quinazolin-4-one] | ≤ 100
O=c1[nH]c(-c2cc3cccn3cn2)nc2ccc(OC3CN(c4ccncn4)C3)cc12 [Compound 27, 6-(1-Pyrimidin-4-yl-azetidin-3-yloxy)-2-pyrrolo[1,2-c]pyrimidin-3-yl-3H-quinazolin-4-one] | > 10000
CCC(=O)N1CC(Oc2cc(C)c3nc(-c4cc(C(F)(F)F)ccn4)[nH]c(=O)c3c2)C1 [Compound 103, 8-Methyl-6-(1-propionyl-azetidin-3-yloxy)-2-(4-trifluoromethyl-pyridin-2-yl)-3H-quinazolin-4-one] | 100 to 1000
Cc1cnc(-c2nc3ccc(OCCCc4ccncc4)cc3c(=O)[nH]2)cn1 [Compound 13, 2-(5-methylpyrazin-2-yl)-6-[3-(4-pyridyl)propoxy]-3H-quinazolin-4-one dihydrochloride] | 1000 to 10000
Cc1cc(OCCCc2ccncc2)cc2c(=O)[nH]c(-c3cc4cccn4cn3)nc12 [Compound 106, 8-methyl-6-(3-pyridin-4-yl-propoxy)-2-pyrrolo[1,2-c]pyrimidin-3-yl-3H-quinazolin-4-one hydrochloride] | ≤ 100
